# “Also recorded” adds a separate entry of the source. Where a SMILES comes first, the peptide text is derived from it. [ ]: non-standard residue; d: D form.
# Legend:
# [1] = test system: primary mouse keratinocytes (1° MK); assay: UVB-evoked Ca++ signaling in primary mouse keratinocytes (fluo-4 imaging); assay type: cell-based; details: for ET1-augmented, UVB-induced Ca++ transients: UVB and ET1 co-exposure; for UVB-evoked Ca++ signaling (ΔF/F0): GSK205 20 μM
# Protocol: Ca++ imaging of 1° MK was conducted following routine procedures. For UVB stimulation, a customized device was built. The system comprised a printed circuit board for electrical interconnects and mechanical support and an ultraviolet light-emitting diode (UV LED).
# The operating wavelength was 295 nm (FIG. 2A), with a full-width half-max of 12 nm. The optical power was 500 mW. The focal point was aimed at the plane of the upper surface of the quartz coverslip, which was used to minimize UV absorption along the optical path towards the cells (FIG. 2A-FIG. 2C). The optical intensity at the focal point was estimated to be 150 mW/mm^2.
# Ca++ imaging of mouse 1° MK in response to chemical activation of TRPV4 was conducted after loading with 2 μM fura2-AM, following a ratiometric Ca2+ imaging protocol with 340/380 nm […] for dual excitation. Ratios of emissions were acquired at 0.5 Hz. ΔR/R0 was determined as the fraction of the increase of a given ratio over baseline ratio, divided by baseline ratio. For stimulation of cells with UVB, where fura-2 was not suitable because of the proximity of stimulation with 340/380 nm and 295 nm, 2 μM fluo4-AM was used instead. Ca++ imaging was carried out at 488 nm excitation, acquisition of emissions at 0.5 Hz, expressed as ΔF/F0. In the custom-built UV optical system, UV LEDs were capped with a ball lens, a transparent optical window in the shape of a hemispherical lens (FIG. 2B). The LED output optical beam focused at 15-20 mm from the lens, with a spot diameter of approximately 1.5-2.0 mm (FIG. 2C). […] The thermal equilibration stage was set for physiological temperature.
# ET1 [2] = assay: ET1 secretion by non-stimulated 1° MK (ELISA); assay type: cell-based, mouse
# ET1 [3] = assay: ET1 expression by UVB-exposed 1° MK (immunocytochemistry); assay type: cell-based, mouse; details: cells preincubated with inhibitor
# Protocol: 1° MK were exposed to UVB using the UV optical system (295 nm LED). 24 hours later the cells were fixed and fluorescently immunolabeled for ET1. Digital images were captured and subjected to morphometry.
# Mouse keratinocytes were cultured on collagen coated quartz coverslips and then stimulated from the bottom using the previously mentioned UV optical system using the 295 nm LED. 24 hours later the cells were fixed in 4% formaldehyde in PBS for 20 minutes, permeabilized with 0.1% Triton X-100 in PBS for 10 minutes, washed, then blocked in 10% normal goat serum in PBS for 45 minutes. Coverslips were incubated overnight with primary antibody mouse anti-ET1 (1:200; Abcam), washed three times in PBS and incubated with secondary antibody for 2 hours at 25° C. Coverslips were washed three times in PBS, once with double-distilled H2O. Digital images were captured using a 40× immersion lens on the BX61 Olympus upright microscope. Morphometric analysis was conducted using ImageJ freeware with tailored regions-of-interest.
# [4] = Formalin-evoked nocifensive (rubbing) behavior, whisker-pad injection, in vivo pain model in mice; set-up: species or system mouse
# Protocol: Compounds were tested for their effect in reducing pain using an in vivo pain model in mice. For mouse formalin-evoked irritant behavior measurements, mice were well-fed, well-rested, and tested at the same time of day, at the same time-point of their circadian rhythm. They were allowed to acclimate to a plexiglas chamber for at least 30 min before testing, and received 10 μL subcutaneous injection of 4% of formalin (diluted from an aqueous solution of commercial 37% formaldehyde with normal saline (NS)) through a 30-gauge needle into the right whiskerpad, as further detailed in Luccarini et al. (J. Pain, 2006, 7, 908-914). Normal saline was used as control injection. After injection, mice were immediately placed back into the chamber and the rubbing behavior was recorded by a private consumer-type video-camera for a 45 min observation period. The recording time was divided into 9 blocks of 5 min, and a nociceptive score was determined per block by measuring the time that the animals spent rubbing the injected area predominantly with the ipsilateral fore-paw and rarely with hind-paw. This rubbing behavior with fore-paw is evoked by pain, which is distinct from itch behavior. Behavioral analysis was conducted by observers blinded to treatment.
# To investigate the effects of the specific compounds GSK205, 16-8, and 16-8/18hy on formalin-induced nociceptive behavior, mice received a single subcutaneous injection of the compounds into the whiskerpad (10 μL, dissolved in 4% DMSO) 15 min before formalin injection. Control animals received the same volume of NS, 4% DMSO.
# human TRPA1 = target: T1, human TRPA1 (Homo sapiens, UniProt O75762); assay: Ca2+ transient in N2a cells transfected with human TRPA1; assay type: cell-based; details: 5 μM compound
# T1 construct: expressed in transfected cells; host or cells: N2a cells, pcDNA3.1 plasmid, co-transfected with an eGFP plasmid
# T1 sequence (O75762 whole entry): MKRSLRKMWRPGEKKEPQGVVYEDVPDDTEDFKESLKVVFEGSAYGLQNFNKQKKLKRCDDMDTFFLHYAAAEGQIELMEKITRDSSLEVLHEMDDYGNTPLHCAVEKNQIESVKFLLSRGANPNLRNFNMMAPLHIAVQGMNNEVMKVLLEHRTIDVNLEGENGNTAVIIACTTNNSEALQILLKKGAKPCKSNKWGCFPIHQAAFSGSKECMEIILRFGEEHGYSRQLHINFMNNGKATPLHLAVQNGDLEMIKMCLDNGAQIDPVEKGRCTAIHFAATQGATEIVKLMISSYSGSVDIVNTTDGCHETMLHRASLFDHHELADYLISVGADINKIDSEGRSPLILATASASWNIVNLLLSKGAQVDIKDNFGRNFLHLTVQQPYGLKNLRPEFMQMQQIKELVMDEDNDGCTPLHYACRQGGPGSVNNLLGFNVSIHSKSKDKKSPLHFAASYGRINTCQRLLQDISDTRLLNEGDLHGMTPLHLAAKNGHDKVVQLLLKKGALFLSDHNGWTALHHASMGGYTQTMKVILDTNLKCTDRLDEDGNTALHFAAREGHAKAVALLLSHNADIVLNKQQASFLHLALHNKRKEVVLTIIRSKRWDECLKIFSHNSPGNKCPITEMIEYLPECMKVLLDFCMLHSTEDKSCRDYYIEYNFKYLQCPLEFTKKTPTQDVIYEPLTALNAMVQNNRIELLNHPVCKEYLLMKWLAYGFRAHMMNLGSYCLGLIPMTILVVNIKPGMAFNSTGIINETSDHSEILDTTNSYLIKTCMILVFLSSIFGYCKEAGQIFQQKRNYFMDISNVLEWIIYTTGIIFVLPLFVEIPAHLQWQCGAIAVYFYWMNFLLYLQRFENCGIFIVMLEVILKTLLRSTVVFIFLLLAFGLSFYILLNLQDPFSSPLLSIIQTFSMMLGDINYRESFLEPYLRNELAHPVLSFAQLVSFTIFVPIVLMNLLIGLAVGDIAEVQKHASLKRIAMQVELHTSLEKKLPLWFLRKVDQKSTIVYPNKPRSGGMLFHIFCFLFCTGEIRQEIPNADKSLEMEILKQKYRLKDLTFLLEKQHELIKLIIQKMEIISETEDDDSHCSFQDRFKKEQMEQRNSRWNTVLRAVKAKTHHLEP
# Protocol: Compounds were tested for their effect on TRPA1. N2a permanent cells were transfected with human TRPA1 cDNA, using a pcDNA3.1 expression plasmid. They were co-transfected with eGFP-expressing plasmid, or, for control, with eGFP plasmid only.
# human TRPV1 = target: T2, human TRPV1 (Homo sapiens, UniProt Q8NER1); assay: Ca2+ signal in N2a cells transfected with human TRPV1; assay type: cell-based; details: stimulation with 5 μM capsaicin
# T2 construct: expressed in transfected cells; host or cells: N2a cells
# T2 sequence (Q8NER1 whole entry): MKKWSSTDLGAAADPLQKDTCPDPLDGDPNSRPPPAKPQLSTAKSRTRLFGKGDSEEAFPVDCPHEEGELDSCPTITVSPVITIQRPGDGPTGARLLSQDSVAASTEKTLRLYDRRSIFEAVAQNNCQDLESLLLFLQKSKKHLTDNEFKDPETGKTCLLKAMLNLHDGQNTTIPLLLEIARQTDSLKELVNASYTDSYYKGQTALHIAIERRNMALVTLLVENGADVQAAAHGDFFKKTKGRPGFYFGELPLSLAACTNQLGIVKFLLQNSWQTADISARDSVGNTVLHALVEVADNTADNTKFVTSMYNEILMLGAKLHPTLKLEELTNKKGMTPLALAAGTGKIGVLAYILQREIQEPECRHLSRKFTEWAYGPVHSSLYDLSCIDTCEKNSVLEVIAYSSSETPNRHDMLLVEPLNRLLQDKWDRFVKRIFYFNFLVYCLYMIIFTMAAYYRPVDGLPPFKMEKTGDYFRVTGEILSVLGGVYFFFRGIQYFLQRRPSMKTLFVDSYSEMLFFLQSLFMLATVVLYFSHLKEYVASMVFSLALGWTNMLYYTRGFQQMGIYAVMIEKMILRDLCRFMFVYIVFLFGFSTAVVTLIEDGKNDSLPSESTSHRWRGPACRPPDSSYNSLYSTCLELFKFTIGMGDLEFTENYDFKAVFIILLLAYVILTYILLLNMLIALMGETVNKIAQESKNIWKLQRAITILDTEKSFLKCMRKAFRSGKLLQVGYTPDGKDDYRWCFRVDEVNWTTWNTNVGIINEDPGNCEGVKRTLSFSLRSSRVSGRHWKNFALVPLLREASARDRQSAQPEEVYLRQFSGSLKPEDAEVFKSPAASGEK
# Protocol: (§1) Compounds were tested for their effect on TRPV1, TRPV2, and TRPV3. Methods were similar to those described in Example 15. Briefly, N2a cells were transfected with human TRPV1, TRPV2, or TRPV3. eGFP-transfection was used as control. For specific stimulation of TRPV1, 5 μM capsaicin was used. For stimulation of TRPV2, hypotonicity (260 mosmol/L) was used, based on previous reports of TRPV2 being osmotically responsive. N2a cells were not responsive to hypotonicity, and neither were control-transfected cells. For TRPV3-expressing cells, camphor (20% of a commercially available stock solution) was used. […] Stimulation and control protocols were applied as for TRPA1-expressing N2a cells as detailed above in Example 15.
# human TRPV2 = target: T3, human TRPV2 (Homo sapiens, UniProt Q9Y5S1); assay: Ca2+ signal in N2a cells transfected with human TRPV2; assay type: cell-based; details: stimulation with hypotonicity (260 mosmol/L)
# T3 construct: expressed in transfected cells; host or cells: N2a cells
# T3 sequence (Q9Y5S1 1-764): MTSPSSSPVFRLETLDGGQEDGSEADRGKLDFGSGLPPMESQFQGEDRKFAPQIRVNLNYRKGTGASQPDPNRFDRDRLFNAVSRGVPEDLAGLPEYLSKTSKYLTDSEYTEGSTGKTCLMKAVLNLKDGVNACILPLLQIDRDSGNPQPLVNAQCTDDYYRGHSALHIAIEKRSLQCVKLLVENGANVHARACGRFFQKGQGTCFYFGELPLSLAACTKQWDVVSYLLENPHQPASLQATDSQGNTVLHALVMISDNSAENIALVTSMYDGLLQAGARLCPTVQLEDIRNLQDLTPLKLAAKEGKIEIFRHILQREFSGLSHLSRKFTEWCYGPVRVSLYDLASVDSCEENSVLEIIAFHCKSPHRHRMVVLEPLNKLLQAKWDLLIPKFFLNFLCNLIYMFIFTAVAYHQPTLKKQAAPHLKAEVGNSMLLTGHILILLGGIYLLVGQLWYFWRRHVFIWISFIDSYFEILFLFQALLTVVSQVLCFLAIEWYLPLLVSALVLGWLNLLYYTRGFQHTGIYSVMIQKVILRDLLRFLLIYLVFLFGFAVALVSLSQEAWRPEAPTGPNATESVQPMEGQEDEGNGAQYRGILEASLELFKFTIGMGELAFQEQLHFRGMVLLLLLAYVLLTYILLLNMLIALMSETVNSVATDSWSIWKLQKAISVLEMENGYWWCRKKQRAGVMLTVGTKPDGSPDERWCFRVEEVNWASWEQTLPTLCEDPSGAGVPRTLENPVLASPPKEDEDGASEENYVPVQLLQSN
# Protocol: as §1
# human TRPV3 = target: T4, human TRPV3 (Homo sapiens, UniProt Q8NET8); assay: Ca2+ signal in N2a cells transfected with human TRPV3; assay type: cell-based; details: stimulation with camphor
# T4 construct: expressed in transfected cells; host or cells: N2a cells
# T4 sequence (Q8NET8 1-790): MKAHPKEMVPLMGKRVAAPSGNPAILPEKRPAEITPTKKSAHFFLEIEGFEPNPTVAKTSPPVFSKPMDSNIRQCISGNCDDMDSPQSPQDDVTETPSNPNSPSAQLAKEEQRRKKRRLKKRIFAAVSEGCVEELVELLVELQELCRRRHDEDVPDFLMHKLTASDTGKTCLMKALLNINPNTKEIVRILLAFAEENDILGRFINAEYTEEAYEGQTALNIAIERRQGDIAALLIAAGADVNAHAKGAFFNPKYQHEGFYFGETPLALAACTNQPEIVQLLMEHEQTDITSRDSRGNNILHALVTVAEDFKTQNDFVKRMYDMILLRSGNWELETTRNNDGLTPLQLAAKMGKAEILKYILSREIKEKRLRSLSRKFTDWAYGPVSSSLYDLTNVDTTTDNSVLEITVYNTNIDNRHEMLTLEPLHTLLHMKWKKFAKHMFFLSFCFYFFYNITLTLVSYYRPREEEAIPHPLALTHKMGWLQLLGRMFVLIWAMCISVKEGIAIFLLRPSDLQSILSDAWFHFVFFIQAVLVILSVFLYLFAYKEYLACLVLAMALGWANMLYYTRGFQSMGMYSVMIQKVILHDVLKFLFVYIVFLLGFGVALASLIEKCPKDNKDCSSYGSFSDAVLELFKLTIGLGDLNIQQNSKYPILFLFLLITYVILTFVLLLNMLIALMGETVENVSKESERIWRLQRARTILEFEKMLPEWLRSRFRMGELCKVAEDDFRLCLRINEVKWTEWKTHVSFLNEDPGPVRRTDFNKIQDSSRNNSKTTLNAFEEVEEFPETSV
# Protocol: as §1
# TRPV4 = TRPV4 (Homo sapiens, UniProt Q9HBA0); assay: TRPV4-mediated calcium influx in N2a cells with targeted expression of human TRPV4; assay type: cell-based; set-up: expressed in transfected cells; host or cells: N2a cells; details: 2.5 μM inhibitor, pre-incubation 10 min; TRPV4 activated with 10 nM GSK101
# Sequence of TRPV4 (Q9HBA0 whole entry): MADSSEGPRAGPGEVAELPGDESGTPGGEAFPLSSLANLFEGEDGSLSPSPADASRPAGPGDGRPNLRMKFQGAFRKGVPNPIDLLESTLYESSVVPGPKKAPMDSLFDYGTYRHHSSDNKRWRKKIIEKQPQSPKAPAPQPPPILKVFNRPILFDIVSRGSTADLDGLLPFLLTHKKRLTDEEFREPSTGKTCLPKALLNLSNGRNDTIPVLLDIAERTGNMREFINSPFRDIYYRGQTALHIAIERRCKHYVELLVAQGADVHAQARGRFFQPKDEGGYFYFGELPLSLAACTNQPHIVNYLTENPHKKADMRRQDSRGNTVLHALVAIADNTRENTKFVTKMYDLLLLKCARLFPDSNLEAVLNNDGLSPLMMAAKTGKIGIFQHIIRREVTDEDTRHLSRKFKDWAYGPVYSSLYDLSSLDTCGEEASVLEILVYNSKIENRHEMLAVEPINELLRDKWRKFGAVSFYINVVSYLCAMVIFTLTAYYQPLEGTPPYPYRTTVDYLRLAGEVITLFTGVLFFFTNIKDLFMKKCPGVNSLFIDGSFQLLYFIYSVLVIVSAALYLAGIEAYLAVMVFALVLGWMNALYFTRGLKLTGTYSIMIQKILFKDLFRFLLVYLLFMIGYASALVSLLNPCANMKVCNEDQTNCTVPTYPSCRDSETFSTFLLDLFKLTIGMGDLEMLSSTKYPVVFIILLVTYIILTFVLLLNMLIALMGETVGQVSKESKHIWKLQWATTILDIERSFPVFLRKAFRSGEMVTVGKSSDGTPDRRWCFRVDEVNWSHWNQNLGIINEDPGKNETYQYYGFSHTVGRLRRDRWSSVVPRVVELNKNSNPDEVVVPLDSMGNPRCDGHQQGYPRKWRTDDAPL
# Protocol: Compounds (GSK205, 16-12, 16-13, 16-14, 16-18, 16-8, and 16-8/18hy) were tested for their effect on TRPV4-mediated calcium influx in N2a cultured cells with targeted expression of human TRPV4. Ca2+ imaging was performed according to Li et al. (Environ. Health Perspect. 2011, 119, 784-93) and Moore et al. (Proc. Natl. Acad. Sci. U.S.A. 2013, 110, E3225-E3234). Briefly, Ca2+ imaging of primary mouse epidermal keratinocytes (1° MK) in response to chemical activation of TRPV4 was conducted after loading with 2 μM fura2-AM, following a ratiometric Ca2+-imaging protocol with 340/380 nm blue light for dual excitation. Ratios of emissions were acquired at 0.5 Hz. ΔR/R0 was determined as the fraction of the increase of a given ratio over baseline ratio, divided by baseline ratio. For stimulation of cells with UVB, where fura-2 was not suitable because of the proximity of stimulation with 340/380 nm vs. 295 nm, 2 μM fluo4-AM was used instead. Ca2+ imaging was carried out at 488 nm excitation, acquisition of emissions at 0.5 Hz, expressed as ΔF/F0. TRPV4 was activated with 10 nM GSK101, a specific activator, which had no effect on RFP-transfected cells. Each of the […] compounds were added to a concentration of 2.5 μM, and its effect was observed.
structure (smiles),measurement,setting,value
CC(C)C[C@@H]1NC(=O)[C@@H](C(C)C)NC(=O)[C@@H]2CCCN2C(=O)[C@@H](CC(=O)O)NC(=O)[C@@H](Cc2c[nH]c3ccccc23)NC1=O [BQ123] (cyclo(L[dW][dD]P[dV])),"ET1-augmented, UVB-induced Ca++ transients",[1],attenuated
CCCC[C@@H](NC(=O)[C@@H](Cc1cn(C(=O)OC)c2ccccc12)NC(=O)[C@H](CC(C)(C)C)NC(=O)N1[C@H](C)CCC[C@@H]1C)C(=O)O [BQ788],"ET1-augmented, UVB-induced Ca++ transients",[1],attenuated
O=C(O)C(Cc1ccc2c(c1)oc1ccccc12)NCP(=O)(O)O (centres unmarked) [CGS35066],UVB-evoked Ca++ signaling (ΔF/F0),[1],significantly diminished; also recorded: significant attenuation
same,ET1 secretion into supernatant (relative ET1 concentration),ET1 [2],down-regulation
same,ET1 immunoreactivity,ET1 [3],significant down-regulation
CCN(CCc1ccc(Nc2nc(-c3ccccc3)cs2)cc1)Cc1ccccc1 [Compound 16-8/18hy],formalin-induced nocifensive behavior at the 45-min time-point,"[4]; 0.5 mM/10 μL, 45-min time-point",reversal to control levels
same,"formalin-induced nocifensive behavior, time course","[4]; 0.5 mM/10 μL, FIG. 21D",significantly attenuated nocifensive behavior
same,"formalin-induced nocifensive behavior, quantitation, in particular second phase",[4]; compounds pre-injected at 0.5 mM/10 μL into whiskerpad 15 min before 4% formalin,significant attenuation of nocifensive behavior
same,inhibitory activity against human TRPA1,human TRPA1,inhibitory activity
same,Ca2+ transience on TRPV1 stimulation,human TRPV1,not affected
same,Ca2+ transience on TRPV2 stimulation,human TRPV2,not affected
same,Ca2+ transience on TRPV3 stimulation,human TRPV3,not affected
same,inhibition of TRPV4-mediated calcium influx (peak calcium concentration in the cells),TRPV4,did not show enhanced inhibition over 16-8
CCN(CCc1ccc(Nc2nc(-c3cccnc3)cs2)cc1)Cc1ccccc1 [Compound 16-18],inhibition of TRPV4-mediated calcium influx (peak calcium concentration in the cells),TRPV4,most potent
COc1ccc2c(c1)CC[C@@H]1[C@@H]2CC[C@]2(C)[C@@H](NCCCCCCN3C(=O)C=CC3=O)CC[C@@H]12 [Compound U73122],UVB-evoked Ca++ signaling (ΔF/F0),[1],virtually eliminated; also recorded: strongly reduced
same,ET1 secretion into supernatant (relative ET1 concentration),ET1 [2],down-regulation
same,ET1 immunoreactivity,ET1 [3],dampened ET1 expression; also recorded: significant down-regulation
"C=C(C)CCO[P@@](=O)(O)OP(=O)(O)O [IPP, isopentenyl pyrophosphate]",UVB-evoked Ca++ signaling (ΔF/F0),[1],no effect; also recorded: not inhibited
CC(C)NCCN(C(C)C)S(=O)(=O)c1ccc(Cl)cc1Cl [RN1734],ET1 secretion into supernatant (relative ET1 concentration),ET1 [2],significant down-regulation
same,ET1 immunoreactivity,ET1 [3],diminished; also recorded: significant down-regulation
